ChEMBL document CHEMBL3232938, “Design, synthesis, and biological evaluation of dihydroartemisinin-fluoroquinolone conjugates as a novel type of potential antitubercular agents” (2014)
≈ marks a conversion by molar mass, not a printed value.

Legend:
Format in all cases: functional
[1] = tested on: Salmonella; assay: Antibacterial activity against Salmonella assessed as growth inhibition after 7 days by microtiter plate assay; settings: 168 h
[2] = tested on: Pseudomonas aeruginosa; assay: Antibacterial activity against Pseudomonas aeruginosa assessed as growth inhibition after 7 days by microtiter plate assay; settings: 168 h
[3] = tested on: Staphylococcus aureus; assay: Antibacterial activity against Staphylococcus aureus assessed as growth inhibition after 7 days by microtiter plate assay; settings: 168 h
[4] = tested on: Escherichia coli; assay: Antibacterial activity against Escherichia coli assessed as growth inhibition after 7 days by microtiter plate assay; settings: 168 h
[5] = tested on: Escherichia coli; assay: Antibacterial activity against duck Escherichia coli assessed as growth inhibition after 7 days by microtiter plate assay; settings: 168 h
[6] = tested on: Salmonella; assay: Antibacterial activity against Salmonella assessed as zone of inhibition at 2 ug/ml; settings: read-out: DIZ
[7] = tested on: Pseudomonas aeruginosa; assay: Antibacterial activity against Pseudomonas aeruginosa assessed as zone of inhibition at 2 ug/ml; settings: read-out: DIZ
[8] = tested on: Staphylococcus aureus; assay: Antibacterial activity against Staphylococcus aureus assessed as zone of inhibition at 2 ug/ml; settings: read-out: DIZ
[9] = tested on: Escherichia coli; assay: Antibacterial activity against Escherichia coli assessed as zone of inhibition at 2 ug/ml; settings: read-out: DIZ
[10] = tested on: Escherichia coli; assay: Antibacterial activity against duck Escherichia coli assessed as zone of inhibition at 2 ug/ml; settings: read-out: DIZ
[11] = tested on: Mycobacterium tuberculosis; assay: Antibacterial activity against Mycobacterium tuberculosis H37Rv ATCC 27294 assessed as growth inhibition after 7 days by microtiter plate assay; settings: H37Rv ATCC 27294, 168 h
[12] = tested on: Mycobacterium tuberculosis; assay: Antibacterial activity against drug-sensitive 1 ug/ml Mycobacterium tuberculosis clinical isolate 741 assessed as growth inhibition after 7 days by microtiter plate assay; settings: isolate 741, 168 h
[13] = tested on: Mycobacterium tuberculosis; assay: Antibacterial activity against drug-sensitive 1 ug/ml Mycobacterium tuberculosis clinical isolate 753 assessed as growth inhibition after 7 days by microtiter plate assay; settings: isolate 753, 168 h
[14] = tested on: Mycobacterium tuberculosis; assay: Antibacterial activity against drug-sensitive 1 ug/ml Mycobacterium tuberculosis clinical isolate 758 assessed as growth inhibition after 7 days by microtiter plate assay; settings: isolate 758, 168 h
[15] = tested on: Mycobacterium tuberculosis; assay: Antibacterial activity against drug-sensitive 1 ug/ml Mycobacterium tuberculosis clinical isolate 760 assessed as growth inhibition after 7 days by microtiter plate assay; settings: isolate 760, 168 h
[16] = tested on: Mycobacterium tuberculosis; assay: Antibacterial activity against drug-sensitive 1 ug/ml Mycobacterium tuberculosis clinical isolate 821 assessed as growth inhibition after 7 days by microtiter plate assay; settings: isolate 821, 168 h

## O=C(O)c1cn(-c2ccc(F)cc2)c2cc(N3CCNCC3)c(F)cc2c1=O [SARAFLOXACIN]
[1]
  MIC: 16 mg/L (≈ 41.5 µM)
[2]
  MIC: 2 mg/L (≈ 5.19 µM)
[3]
  MIC: 16 mg/L (≈ 41.5 µM)
[4]
  MIC: 0.5 mg/L (≈ 1.3 µM)
[5]
  MIC: 4 mg/L (≈ 10.4 µM)
[6]
  zone of inhibition at 2 µg/mL: 25 mm
[7]
  zone of inhibition at 2 µg/mL: 20 mm
[8]
  zone of inhibition at 2 µg/mL: < 5 mm
[9]
  zone of inhibition at 2 µg/mL: 24 mm
[10]
  zone of inhibition at 2 µg/mL: 38 mm
[11]
  MIC: 5.19 µM (≈ 2 µg/mL)
[12]
  MIC: 16 mg/L (≈ 41.5 µM)
[13]
  MIC: 8 mg/L (≈ 20.8 µM)
[14]
  MIC: 8 mg/L (≈ 20.8 µM)
[15]
  MIC: 8 mg/L (≈ 20.8 µM)
[16]
  MIC: 8 mg/L (≈ 20.8 µM)

## CCn1cc(C(=O)O)c(=O)c2cc(F)c(N3CCNCC3)cc21 [NORFLOXACIN]
[1]
  MIC: 16 mg/L (≈ 50.1 µM)
[2]
  MIC: 2 mg/L (≈ 6.26 µM)
[3]
  MIC: 16 mg/L (≈ 50.1 µM)
[4]
  MIC: 2 mg/L (≈ 6.26 µM)
[5]
  MIC: 4 mg/L (≈ 12.5 µM)
[6]
  zone of inhibition at 2 µg/mL: 17 mm
[7]
  zone of inhibition at 2 µg/mL: 16 mm
[8]
  zone of inhibition at 2 µg/mL: < 5 mm
[9]
  zone of inhibition at 2 µg/mL: 18 mm
[10]
  zone of inhibition at 2 µg/mL: 33 mm
[11]
  MIC: 6.26 µM (≈ 2 µg/mL)
[12]
  MIC: 8 mg/L (≈ 25.1 µM)
[13]
  MIC: 4 mg/L (≈ 12.5 µM)
[14]
  MIC: 4 mg/L (≈ 12.5 µM)
[15]
  MIC: 4 mg/L (≈ 12.5 µM)
[16]
  MIC: 4 mg/L (≈ 12.5 µM)

## NC1CCN(c2c(F)cc3c(=O)c(C(=O)O)cn(C4CC4)c3c2Cl)C1 (centres undefined) [CLINAFLOXACIN]
[1]
  MIC: 4 mg/L (≈ 10.9 µM)
[2]
  MIC: 0.5 mg/L (≈ 1.37 µM)
[3]
  MIC: 2 mg/L (≈ 5.47 µM)
[4]
  MIC: 0.25 mg/L (≈ 0.683 µM)
[5]
  MIC: 4 mg/L (≈ 10.9 µM)
[6]
  zone of inhibition at 2 µg/mL: 28 mm
[7]
  zone of inhibition at 2 µg/mL: 32 mm
[8]
  zone of inhibition at 2 µg/mL: 21 mm
[9]
  zone of inhibition at 2 µg/mL: 25 mm
[10]
  zone of inhibition at 2 µg/mL: 43 mm
[11]
  MIC: 0.43 µM (≈ 0.157 µg/mL)
[12]
  MIC: 1 mg/L (≈ 2.73 µM)
[13]
  MIC: 0.5 mg/L (≈ 1.37 µM)
[14]
  MIC: 0.25 mg/L (≈ 0.683 µM)
[15]
  MIC: 0.25 mg/L (≈ 0.683 µM)
[16]
  MIC: 1 mg/L (≈ 2.73 µM)

## C[C@H]1[C@@H](O)O[C@@H]2O[C@@]3(C)CC[C@H]4[C@H](C)CC[C@@H]1[C@@]24OO3 [ARTENIMOL]
[1]
  MIC: 16 mg/L (≈ 56.3 µM)
[2]
  MIC: 16 mg/L (≈ 56.3 µM)
[3]
  MIC: 16 mg/L (≈ 56.3 µM)
[4]
  MIC: 16 mg/L (≈ 56.3 µM)
[5]
  MIC: 4 mg/L (≈ 14.1 µM)
[6]
  zone of inhibition at 2 µg/mL: < 5 mm
[7]
  zone of inhibition at 2 µg/mL: < 5 mm
[8]
  zone of inhibition at 2 µg/mL: < 5 mm
[9]
  zone of inhibition at 2 µg/mL: < 5 mm
[10]
  zone of inhibition at 2 µg/mL: < 5 mm
[11]
  MIC: > 56 µM
[12]
  MIC: > 16 mg/L
[13]
  MIC: > 16 mg/L
[14]
  MIC: > 16 mg/L
[15]
  MIC: > 16 mg/L
[16]
  MIC: > 16 mg/L
